In US7825155B2, “Oxindole derivative as feeding control agent” (priority 2005, dated 2010):

Columns and labels:
[1] = molecular target: T1, human GHSR (growth hormone secretagogue receptor) (Homo sapiens, UniProt Q92847); type: cell-based; conditions: 1 μM compound, 10 nM Ghrelin, human GHSR CHO-K1 cells
T1 construct: host or cells: CHO-K1
Method: Assessment of Ghrelin Antagonism Using Human GHSR Stably Expressing Cells
By using cells wherein human GHSR (growth hormone secretagogue receptor) is stably expressed, the effects of compounds of the Examples on elevation of cellular calcium ion concentrations were evaluated when endogenous ligand Ghrelin was added to the cells.
Human GHSR stably expressing CHO-K1 cells (EUROSCREEN) were seeded on 96-well assay plate (Black plate, Clear Bottom (Corning)) in 2×10^4 cells/100 μl/well, and incubated in cell culture device for 1 day at 37° C. under 5% CO2. […]
Ghrelin was combined with an equal amount of the test compound which was prepared with Hanks/Hepes (pH7.4) in a concentration of 10-times of the final concentration, and the mixture was added to the cells in 50 μl/well. Immediately after that, excitation wavelength in 488 nm was measured by FLIPR (Molecular Devices) 80 times at 1 second interval. Ghrelin antagonistic ratio (%) of the compound in the concentration of 1 μM was calculated according to the following equation wherein the values of fluorescence intensity means those obtained by deducting the minimum value from the maximum value. […]
A: Fluorescence intensity in case of adding 1 μM of the compound and 10 nM of Ghrelin
B: Fluorescence intensity in case of no addition of the compound and Ghrelin
C: Fluorescence intensity in case of adding only 10 nM of Ghrelin

[2] = tested on: Ghrelin-induced feeding increasing mice; assay: Assessment of feeding in mice (Ghrelin-induced feeding increasing mice); type: in vivo; conditions: ICR mice, compound i.p. 12.5, 25, 50 mg/kg, Ghrelin 250 nmol/kg i.v., 1, 2 and 4 hours
Method: Assessment of Feeding in Mice
The effects of compounds of the Examples on the feeding amount in intraperitoneally administering the compound were evaluated using Ghrelin-induced feeding increasing mice.
ICR mice (male, 7-week-old, Charles River Laboratories) were fed in 5 mice in each cage. Food (CE-2, Oriental Yeast Co., Ltd.) and sterile tap water were intaken freely.
ICR mice were intraperitoneally administered the compound (12.5, 25, 50 mg/kg) miscible in 10% polyethylene glycol #400, and immediately after that, intravenously administered Ghrelin (250 nmol/kg) dissolved in saline.
The food weight was measured 4 times in total: just before the administration of Ghrelin, and 1, 2 and 4 hours after the administration. The inhibition ratio was calculated according to the following equation and the integrated feeding amount until each measuring time point. Each treatment group consisted of 10 mice.
Inhibition ratio (%)=(B−C)/(B−A)×100
A: Feeding amount (g) in group administered with only vehicle
B: Feeding amount (g) in group administered with only Ghrelin
C: Feeding amount (g) in group administered with Ghrelin and test compound

T1 sequence (Q92847 whole entry): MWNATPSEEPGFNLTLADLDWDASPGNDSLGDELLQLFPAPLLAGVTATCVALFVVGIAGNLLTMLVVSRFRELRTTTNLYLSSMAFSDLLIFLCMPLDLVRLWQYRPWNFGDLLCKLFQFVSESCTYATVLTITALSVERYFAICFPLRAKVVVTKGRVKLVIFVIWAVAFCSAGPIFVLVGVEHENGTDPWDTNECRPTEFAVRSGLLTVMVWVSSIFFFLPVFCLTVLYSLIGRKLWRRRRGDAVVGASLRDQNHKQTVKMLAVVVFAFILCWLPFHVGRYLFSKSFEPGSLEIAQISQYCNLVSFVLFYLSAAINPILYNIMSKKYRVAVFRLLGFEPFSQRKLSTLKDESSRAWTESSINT

CCN(CC)[C@H]1C[C@H](CN2C(=O)C(O)(c3ccc(Cl)cc3Cl)c3c2cc(C(N)=O)cc3C(F)(F)F)C1.Cl (stereo partly drawn) [Example 1, 3-(2,4-dichlorophenyl)-1-[trans-3-(diethylamino)-cyclobutylmethyl]-4-trifluoromethyl-3-hydroxy-2-oxoindoline-6-carboxamide Hydrochloride]
Ghrelin antagonistic ratio [1]: 82%
Inhibition ratio of feeding amount, maximum [2]: 110%

CCN(CC)[C@H]1C[C@H](CN2C(=O)C(O)(c3ccc(Cl)cc3Cl)c3c2cc(-c2ncco2)cc3C(F)(F)F)C1 (stereo partly drawn) [Example 14, 3-(2,4-dichlorophenyl)-1-[trans-3-(diethylamino)-cyclobutylmethyl]-4-trifluoromethyl-3-hydroxy-6-(2-oxazolyl)-1,3-dihydro-2H-indol-2-one]
Ghrelin antagonistic ratio [1]: 74%
